Experimental data published in the supplement of paper PMC13380429.

Tests used:
[1] = test system: A549-ACE2 infected with SARS-CoV-2; assay: cell count relative to DMSO; higher = less toxic; conditions: 24 h
[2] = test system: U2OS; assay: cell viability relative to DMSO; higher = less toxic; conditions: 72 h
[3] = test system: Vero E6; assay: as above; conditions: 72 h
[4] = test system: HepG2; assay: as above; conditions: 72 h
[5] = test system: Calu-3; assay: as above; conditions: 72 h
[6] = test system: Caco-2; assay: as above; conditions: 72 h
[7] = test system: U2OS; assay: drug sensitivity score (DSS) for viability; higher = more toxic; extreme values may be limits of the assay; conditions: 72 h
[8] = test system: Vero E6; assay: as above; conditions: 72 h
[9] = test system: HepG2; assay: as above; conditions: 72 h
[10] = test system: Calu-3; assay: as above; conditions: 72 h
[11] = test system: Caco-2; assay: as above; conditions: 72 h
[12] = test system: A549-ACE2; assay: drug-induced phospholipidosis relative to tamoxifen; higher = more phospholipidosis
[13] = test system: U2OS; assay: relative viability EC50 (midpoint between 100% and the lowest measured viability); higher = less toxic; conditions: 72 h
[14] = test system: Vero E6; assay: as above; conditions: 72 h
[15] = test system: HepG2; assay: as above; conditions: 72 h
[16] = test system: Calu-3; assay: as above; conditions: 72 h
[17] = test system: Caco-2; assay: as above; conditions: 72 h
[18] = test system: A549-ACE2 infected with SARS-CoV-2; assay: morphology score (similarity to uninfected cells); higher = more like uninfected cells; conditions: 24 h
[19] = test system: A549-ACE2 infected with SARS-CoV-2; assay: SARS-CoV-2 infection rate relative to DMSO; higher = more infection; conditions: 24 h
[20] = test system: A549-ACE2; assay: phospholipidosis EC50; higher = less potent phospholipidosis inducer

CC[C@@]1([C@H]2O[C@H]([C@H]3O[C@@](O)(CO)[C@H](C)C[C@@H]3C)C[C@H]2C)CC[C@H]([C@@]2(C)CC[C@]3(C[C@H](O)[C@@H](C)[C@@H]([C@H](C)[C@H](OC)[C@@H](C)C(=O)O)O3)O2)O1 [MONENSIN SODIUM]
Conditions	SARS-CoV-2 infection rate, [19] [%]	cell count, [1] [%]	cell viability, [2] [%]	cell viability, [3] [%]	cell viability, [4] [%]	cell viability, [5] [%]	cell viability, [6] [%]	morphology score, [18]
1 nM	–	–	99.5	96.7	94.6	99	93.9	–
10 nM	–	–	96.2	103	107	93.1	93.4	–
100 nM	–	–	99.3	95.6	91.8	89.9	109	–
0.3 µM	50	114	–	–	–	–	–	0.72
1000 nM	–	–	97.1	103	82.9	68	56.9	–
3 µM	61	108	–	–	–	–	–	0.85
10 µM	25	115	–	–	–	–	–	0.83
10000 nM	–	–	35.4	102	26.2	36.9	20.9	–
30 µM	17	119	–	–	–	–	–	0.82

Conditions	drug sensitivity score	relative viability EC50 [µM]
[7]	3.9	–
[8]	0	–
[9]	6.8	–
[10]	7.5	–
[11]	9.7	–
[13]	–	2.83
[14]	–	> 10
[15]	–	1.61
[16]	–	0.789
[17]	–	0.934

drug-induced phospholipidosis [%], [12]
Conditions	0.3 µM	0.833333 µM	3.33333 µM	6.66667 µM	10 µM	30 µM
24 h	-1.18	-1.15	0.94	1.15	-4.98	-12.7
48 h	5.4	3.73	5.09	-3.84	-2.31	-14.7
72 h	6.27	4.79	7.82	–	–	–

COc1cc(C(=O)NC2CCN(C)CC2)c(F)cc1Nc1ncc2c(n1)N(C1CCCC1)CC(F)(F)C(=O)N2C [TAK-960]
Conditions	morphology score, 0.1 µM	morphology score, 0.3 µM	morphology score, 1 µM	morphology score, 3 µM	phospholipidosis EC50, 24 h [µM]
[18]	-0.06	-0.01	0.15	0.58	–
[20]	–	–	–	–	3.2

Conditions	drug sensitivity score
[7]	12.5
[8]	12.5
[9]	21.8
[10]	4.3
[11]	10.9

CN1C2C=C(c3sccc3Br)CC1CC2 (stereo not given) [NS-3861]
Conditions	SARS-CoV-2 infection rate, [19] [%]	cell count, [1] [%]	cell viability, [2] [%]	cell viability, [3] [%]	cell viability, [4] [%]	cell viability, [6] [%]	morphology score, [18]
1 nM	–	–	97.6	98.9	107	101	–
10 nM	–	–	101	99.5	107	103	–
100 nM	–	–	95.3	99	97.2	92.4	–
0.3 µM	97	99	–	–	–	–	0
1000 nM	–	–	100	96.7	89.2	106	–
3 µM	83	109	–	–	–	–	0.45
10 µM	75	104	–	–	–	–	0.4
10000 nM	–	–	94.6	97.2	92.5	101	–
30 µM	41	113	–	–	–	–	0.77

Conditions	drug sensitivity score	relative viability EC50 [µM]
[7]	0	–
[8]	0	–
[9]	0.3	–
[11]	0	–
[13]	–	> 10
[14]	–	> 10
[15]	–	> 10
[17]	–	> 10

drug-induced phospholipidosis [%], [12]
Conditions	0.3 µM	0.833333 µM	3.33333 µM	6.66667 µM	10 µM	30 µM
24 h	1.11	-3.88	-0.69	-1.21	2.15	14.7
48 h	2.52	-3.07	-1.18	-0.52	-0.04	12.8
72 h	4.83	-2.54	-0.115	0.151	0.487	12.9

O=C(N[C@@H]1Cc2ccccc2N(C[C@@H](O)CO)C1=O)c1cc2cc(Cl)sc2[nH]1 [GPi-688]
cell viability [%]
Conditions	[2]	[3]	[4]	[5]	[6]
1 nM	98.4	99.9	96	102	101
10 nM	102	102	104	99.3	98
100 nM	95.2	104	98.1	99.9	96.9
1000 nM	96.8	100	104	94.1	94.2
10000 nM	94.7	90.5	100	87.8	92.9

Conditions	drug sensitivity score	relative viability EC50 [µM]
[7]	0	–
[8]	0	–
[9]	0	–
[10]	0.3	–
[11]	0	–
[13]	–	> 10
[14]	–	> 10
[15]	–	> 10
[16]	–	> 10
[17]	–	> 10

OC(c1ccccc1)C1CCN(CCc2ccccc2)CC1 (stereo not given)
cell viability [%]
Conditions	[2]	[3]	[4]	[5]	[6]
1 nM	101	96.3	88.4	97.3	98.4
10 nM	96.7	94.1	110	85	95.2
100 nM	102	93.5	96.7	111	102
1000 nM	98	93.8	105	108	101
10000 nM	101	106	114	104	95.4

Conditions	drug sensitivity score	relative viability EC50 [µM]
[7]	0	–
[8]	0	–
[9]	0	–
[10]	0	–
[11]	0	–
[13]	–	> 10
[14]	–	> 10
[15]	–	> 10
[16]	–	> 10
[17]	–	> 10

CN1CCN(CCCN2c3ccccc3Sc3ccc(Cl)cc32)CC1 [prochlorperazine]
Conditions	SARS-CoV-2 infection rate [%]	cell count [%]	cell viability [%]	morphology score	phospholipidosis EC50 [µM]
[1], 0.3 µM	–	100	–	–	–
[1], 3 µM	–	123	–	–	–
[1], 10 µM	–	117	–	–	–
[1], 30 µM	–	64	–	–	–
[2], 1 nM	–	–	103	–	–
[2], 10 nM	–	–	94.5	–	–
[2], 100 nM	–	–	98.6	–	–
[2], 1000 nM	–	–	94	–	–
[2], 10000 nM	–	–	91.4	–	–
[3], 1 nM	–	–	96	–	–
[3], 10 nM	–	–	92.5	–	–
[3], 100 nM	–	–	101	–	–
[3], 1000 nM	–	–	97.4	–	–
[3], 10000 nM	–	–	81	–	–
[4], 1 nM	–	–	107	–	–
[4], 10 nM	–	–	102	–	–
[4], 100 nM	–	–	97	–	–
[4], 1000 nM	–	–	106	–	–
[4], 10000 nM	–	–	55.5	–	–
[5], 1 nM	–	–	106	–	–
[5], 10 nM	–	–	103	–	–
[5], 100 nM	–	–	105	–	–
[5], 1000 nM	–	–	105	–	–
[5], 10000 nM	–	–	93.2	–	–
[6], 1 nM	–	–	100	–	–
[6], 10 nM	–	–	84.1	–	–
[6], 100 nM	–	–	96.9	–	–
[6], 1000 nM	–	–	99.8	–	–
[6], 10000 nM	–	–	76.6	–	–
[18], 0.3 µM	–	–	–	0	–
[18], 3 µM	–	–	–	0.84	–
[18], 10 µM	–	–	–	0.79	–
[18], 30 µM	–	–	–	0.19	–
[19], 0.3 µM	95	–	–	–	–
[19], 3 µM	29	–	–	–	–
[19], 10 µM	12	–	–	–	–
[19], 30 µM	50	–	–	–	–
[20], 24 h	–	–	–	–	3.19
[20], 48 h	–	–	–	–	4.05
[20], 72 h	–	–	–	–	12.5

Conditions	drug sensitivity score	relative viability EC50 [µM]
[7]	0	–
[8]	0.9	–
[9]	1.9	–
[10]	0	–
[11]	0.9	–
[13]	–	> 10
[14]	–	> 10
[16]	–	> 10
[17]	–	> 10

drug-induced phospholipidosis [%], [12]
Conditions	0.3 µM	0.833333 µM	3.33333 µM	6.66667 µM	10 µM	30 µM
24 h	1.08	10.5	48.6	76.3	92.2	56.6
48 h	0.82	7.81	45.8	83.3	94.4	–
72 h	3.57	9.54	35	75	104	–

Nc1nccs1 [aminothiazole]
cell viability [%]
Conditions	[2]	[3]	[4]	[5]	[6]
1 nM	102	105	104	102	102
10 nM	98.6	106	100	105	94.8
100 nM	94.2	98.2	94.7	100	97.8
1000 nM	99.8	93.4	97.2	109	98.9
10000 nM	97.1	95.4	97.4	91.3	100

Conditions	drug sensitivity score	relative viability EC50 [µM]
[7]	0	–
[8]	0	–
[9]	0	–
[10]	0	–
[11]	0	–
[13]	–	> 10
[14]	–	> 10
[15]	–	> 10
[16]	–	> 10
[17]	–	> 10

OCc1ccc(O[C@@H]2O[C@H](CO)[C@@H](O)[C@H](O)[C@H]2O)cc1 [gastrodin]
cell viability [%]
Conditions	[2]	[3]	[4]	[5]	[6]
1 nM	97.7	95.4	99.1	108	106
10 nM	99.9	99.6	104	94.1	95.9
100 nM	100	95.1	104	94.2	107
1000 nM	99.7	92.1	107	110	92
10000 nM	98.1	95.3	117	104	106

Conditions	drug sensitivity score	relative viability EC50 [µM]
[7]	0	–
[8]	0	–
[9]	0	–
[10]	0	–
[11]	0	–
[13]	–	> 10
[14]	–	> 10
[15]	–	> 10
[16]	–	> 10
[17]	–	> 10

O=C1CN=C(c2cccc(Br)c2)c2oc3ccccc3c2N1 [5-BDBD]
cell viability [%]
Conditions	[2]	[3]	[4]	[5]	[6]
1 nM	104	96.7	98.3	103	101
10 nM	97.5	92.8	100	97.2	96.6
100 nM	95.5	94.6	94.4	112	102
1000 nM	99.7	93.5	96.8	96.8	106
10000 nM	101	95.9	92.5	111	97

Conditions	drug sensitivity score	relative viability EC50 [µM]
[7]	0	–
[8]	0	–
[9]	0	–
[10]	0	–
[11]	0	–
[13]	–	> 10
[14]	–	> 10
[15]	–	> 10
[16]	–	> 10
[17]	–	> 10
